Read-outs that look alike come from different tables or passages of the source.
How the values were obtained:
human CaSR = target: T1, human CaSR (Homo sapiens, UniProt P41180); assay: CaSR FLIPR assay (calcilytic activity); assay type: cell-based; design: expressed in transfected cells
T1 sequence (P41180 20-1078): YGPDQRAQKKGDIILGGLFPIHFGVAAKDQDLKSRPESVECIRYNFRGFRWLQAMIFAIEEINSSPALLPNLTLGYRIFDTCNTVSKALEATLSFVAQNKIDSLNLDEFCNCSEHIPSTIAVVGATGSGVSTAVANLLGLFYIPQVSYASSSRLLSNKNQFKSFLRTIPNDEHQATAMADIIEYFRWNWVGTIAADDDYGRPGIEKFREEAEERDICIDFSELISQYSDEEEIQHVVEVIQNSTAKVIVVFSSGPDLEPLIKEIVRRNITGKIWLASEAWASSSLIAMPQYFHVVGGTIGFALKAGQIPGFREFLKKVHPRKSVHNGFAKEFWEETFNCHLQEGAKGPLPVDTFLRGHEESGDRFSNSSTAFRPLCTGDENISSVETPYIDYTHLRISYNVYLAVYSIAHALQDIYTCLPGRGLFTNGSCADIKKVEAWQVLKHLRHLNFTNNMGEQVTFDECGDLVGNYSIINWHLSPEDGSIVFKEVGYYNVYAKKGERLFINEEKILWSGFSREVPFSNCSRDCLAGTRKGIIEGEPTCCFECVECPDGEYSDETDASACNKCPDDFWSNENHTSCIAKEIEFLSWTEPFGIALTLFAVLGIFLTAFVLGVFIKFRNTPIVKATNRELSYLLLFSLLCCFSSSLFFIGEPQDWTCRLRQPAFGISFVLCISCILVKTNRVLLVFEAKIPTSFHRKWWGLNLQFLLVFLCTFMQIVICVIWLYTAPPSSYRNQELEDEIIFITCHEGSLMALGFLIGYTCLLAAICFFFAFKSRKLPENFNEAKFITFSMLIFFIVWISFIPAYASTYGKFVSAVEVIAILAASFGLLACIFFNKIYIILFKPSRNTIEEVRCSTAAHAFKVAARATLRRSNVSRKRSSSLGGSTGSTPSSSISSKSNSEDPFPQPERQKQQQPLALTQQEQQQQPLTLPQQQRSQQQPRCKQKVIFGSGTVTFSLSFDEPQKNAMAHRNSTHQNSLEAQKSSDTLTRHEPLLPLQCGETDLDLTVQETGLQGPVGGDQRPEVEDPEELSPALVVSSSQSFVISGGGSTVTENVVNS
Procedure, shortened: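 Calcium flux in HEK293 cells stably expressing human CaSR, loaded with Calcium 4 dye for 1 h at 37° C, read on FLIPR. Compounds in 0.5% DMSO (10-point, 3-fold series) added first, then CaCl2 at 1 mM final. Buffer: 20 mM HEPES pH 7.4, HBSS, 0.4 mM CaCl2, Mg salts.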

PTH release = assay: In vivo pharmacodynamic effects: PTH (Rat Intact PTH 1-84 ELISA); conditions: oral gavage
Method: Procedures for In Vivo Pharmacodynamic Effects
The objective of these studies was to assess the effect of compounds on stimulating PTH release and increasing calcium secretion in the rat. Male Sprague-Dawley rats (3-4 months old) were equipped with jugular vein cannulae (JVC) by surgical procedure. The rats were given the compound by oral gavage. Blood was sampled from the JVC at 15 minutes, 30 minutes, 60 minutes, 120 minutes, 240 minutes, 420 minutes, and 24 hrs post compound administration. Plasma was separated and used for a PTH ELISA assay and a calcium concentration assay. After the last blood sampling, the rats were sacrificed under anesthesia by inhalation of CO2. All procedures were conducted in compliance with the Animal Welfare Act, the Guide for the Care and Use of Laboratory Animals and the recommendations of the AVMA Panel on Euthanasia.
Rat plasma samples were used for measuring serum PTH levels: The Rat Intact PTH 1-84 ELISA kit (Immutopics Cat#60-2500) was used according to the manufacturer's instructions. Total serum calcium determination was made using a calcium arsenazo III reagent (Fisher Scientific Cat # Pointe Scientific Calcium (Arsenazo III) Reagents; Mfr. No.: C7529-500; Qty.: 500 mL. Mfr. No.: C7529-500, Part #23666172) according to the manufacturer's instructions. For these experiments, 2 μl of sample was added to 198 μl of reagent, mixed, and read at 650 nm.

[1] = HEK293 cells stably expressing human recombinant CaSR, 1 mM CaCl2 agonist, Tables 1-24, read-out: FLIPR ASSAY IC50
[2] = summary table, read-out: FLIPR CaSR (IC50)

Row | Structure (SMILES) | IC50 (human CaSR; [1]) | IC50 (human CaSR; [2]) | Maximum Change in PTH (fold) (PTH release; at 30 mpk) | Maximum Change in PTH (fold) (PTH release; at 10 mpk)
1 | CSc1ccc(CC(C)(C)NC[C@@H](O)CO[C@H](C)c2ccc(C)c3c2C2[C@H](O3)[C@H]2C(=O)O)cc1F (stereo partly drawn) [Example 8-24] | 21 nM | 20 nM | 4 (at fold | 
2 | C[C@@H](OC[C@H](O)CNC(C)(C)Cc1ccc2ccccc2c1)c1cccc2c1[C@@H]1[C@H](O2)[C@H]1C(=O)O [Example 5-1] | 9 nM | 9 nM |  | 8 (at fold
3 | C[C@@H](OC[C@H](O)CNC(C)(C)Cc1ccc2ccccc2c1)c1cccc2c1O[C@@H]1[C@@H](C(=O)O)[C@H]21 [Example 1-1] | 26 nM | 22 nM | 5.8 (at fold | 

— patent publication US20160311791A1, “NOVEL TRICYCLIC CALCIUM SENSING RECEPTOR ANTOGONISTS FOR THE TREATMENT OF OSTEOPOSOSIS” (MERCK SHARP & DOHME CORP., priority 2013, published 2016)
